Values of other authors in patent US20260262632A1, “COMPOSITIONS AND METHODS FOR TANK-MIX SPRAY APPLICATION OF 1-MCP” (AGROFRESH INC., priority 2023, published 2026).

CC1=CC1 [1-MCP, 1-Methylcyclopropene]
concentration above which gaseous 1-MCP is flammable: > 13,300 ppm
